The NIST ThermoML archive (doi:10.1016/j.jct.2017.10.002)
Several values for one entry are separate records, joined by “and”; a condition that tells them apart may be missing. Equal entries are not always repeated. Numbers after ± are expanded uncertainties.

Conditions: 101.33 kPa, relaxation calorimetry

CCc1ncc[n-]1.CCc1ncc[n-]1.[Zn+2] [zinc(II) 2-ethylimidazolide]
molar entropy
Conditions | Crystal | Glass
1 K | – | 0.008253 ± 0.00074 J/K/mol
2 K | – | 0.0244 ± 0.002 J/K/mol
3 K | – | 0.06286 ± 0.0052 J/K/mol
4 K | – | 0.1418 ± 0.012 J/K/mol
5 K | 0.3545 ± 0.029 J/K/mol and 0.1203 ± 0.0097 J/K/mol and 0.3132 ± 0.025 J/K/mol | 0.2736 ± 0.022 J/K/mol
6 K | 0.5863 ± 0.047 J/K/mol and 0.2089 ± 0.017 J/K/mol and 0.5177 ± 0.042 J/K/mol | 0.464 ± 0.037 J/K/mol
7 K | 0.8825 ± 0.071 J/K/mol and 0.3306 ± 0.027 J/K/mol and 0.7801 ± 0.063 J/K/mol | 0.7139 ± 0.057 J/K/mol
8 K | 1.241 ± 0.1 J/K/mol and 0.4909 ± 0.039 J/K/mol and 1.099 ± 0.088 J/K/mol | 1.022 ± 0.082 J/K/mol
9 K | 1.66 ± 0.13 J/K/mol and 0.6925 ± 0.056 J/K/mol and 1.472 ± 0.12 J/K/mol | 1.385 ± 0.11 J/K/mol
10 K | 2.135 ± 0.13 J/K/mol and 0.9364 ± 0.057 J/K/mol and 1.895 ± 0.12 J/K/mol | 1.801 ± 0.11 J/K/mol
15 K | 5.252 ± 0.32 J/K/mol and 2.784 ± 0.17 J/K/mol and 4.686 ± 0.29 J/K/mol | 4.579 ± 0.28 J/K/mol
20 K | 9.321 ± 0.57 J/K/mol and 5.606 ± 0.34 J/K/mol and 8.386 ± 0.51 J/K/mol | 8.3 ± 0.51 J/K/mol
25 K | 14.04 ± 0.85 J/K/mol and 9.263 ± 0.56 J/K/mol and 12.76 ± 0.78 J/K/mol | 12.73 ± 0.78 J/K/mol
30 K | 19.18 ± 1.2 J/K/mol and 13.59 ± 0.83 J/K/mol and 17.67 ± 1.1 J/K/mol | 17.72 ± 1.1 J/K/mol
35 K | 24.62 ± 1.5 J/K/mol and 18.45 ± 1.1 J/K/mol and 23 ± 1.4 J/K/mol | 23.14 ± 1.4 J/K/mol
40 K | 30.28 ± 1.8 J/K/mol and 23.75 ± 1.4 J/K/mol and 28.69 ± 1.7 J/K/mol | 28.89 ± 1.8 J/K/mol
45 K | 36.11 ± 2.2 J/K/mol and 29.41 ± 1.8 J/K/mol and 34.67 ± 2.1 J/K/mol | 34.85 ± 2.1 J/K/mol
50 K | 42.08 ± 2.6 J/K/mol and 35.35 ± 2.2 J/K/mol and 40.84 ± 2.5 J/K/mol | 40.96 ± 2.5 J/K/mol
60 K | 54.27 ± 3.3 J/K/mol and 47.75 ± 2.9 J/K/mol and 53.56 ± 3.3 J/K/mol | 53.5 ± 3.3 J/K/mol
70 K | 66.58 ± 4.1 J/K/mol and 60.58 ± 3.7 J/K/mol and 66.61 ± 4.1 J/K/mol | 66.3 ± 4 J/K/mol
80 K | 78.9 ± 4.8 J/K/mol and 73.57 ± 4.5 J/K/mol and 79.79 ± 4.9 J/K/mol | 79.14 ± 4.8 J/K/mol
90 K | 91.13 ± 5.6 J/K/mol and 86.51 ± 5.3 J/K/mol and 92.92 ± 5.7 J/K/mol | 91.86 ± 5.6 J/K/mol
100 K | 103.17 ± 6.3 J/K/mol and 99.26 ± 6 J/K/mol and 105.89 ± 6.5 J/K/mol | 104.37 ± 6.4 J/K/mol
110 K | 114.97 ± 7 J/K/mol and 111.76 ± 6.8 J/K/mol and 118.62 ± 7.2 J/K/mol | 116.61 ± 7.1 J/K/mol
120 K | 126.51 ± 7.7 J/K/mol and 123.99 ± 7.5 J/K/mol and 131.07 ± 8 J/K/mol | 128.56 ± 7.8 J/K/mol
130 K | 137.77 ± 8.4 J/K/mol and 135.92 ± 8.3 J/K/mol and 143.23 ± 8.7 J/K/mol | 140.23 ± 8.5 J/K/mol
140 K | 148.77 ± 9.1 J/K/mol and 147.57 ± 9 J/K/mol and 155.11 ± 9.4 J/K/mol | 151.61 ± 9.2 J/K/mol
150 K | 159.51 ± 9.7 J/K/mol and 158.95 ± 9.7 J/K/mol and 166.72 ± 10 J/K/mol | 162.74 ± 9.9 J/K/mol
160 K | 170.01 ± 10 J/K/mol and 170.08 ± 10 J/K/mol and 178.07 ± 11 J/K/mol | 173.62 ± 11 J/K/mol
170 K | 180.29 ± 11 J/K/mol and 180.98 ± 11 J/K/mol and 189.19 ± 12 J/K/mol | 184.28 ± 11 J/K/mol
180 K | 190.36 ± 12 J/K/mol and 191.68 ± 12 J/K/mol and 200.09 ± 12 J/K/mol | 194.75 ± 12 J/K/mol
190 K | 200.25 ± 12 J/K/mol and 202.19 ± 12 J/K/mol and 210.8 ± 13 J/K/mol | 205.03 ± 12 J/K/mol
200 K | 209.96 ± 13 J/K/mol and 212.52 ± 13 J/K/mol and 221.34 ± 13 J/K/mol | 215.14 ± 13 J/K/mol
210 K | 219.52 ± 13 J/K/mol and 222.71 ± 14 J/K/mol and 231.73 ± 14 J/K/mol | 225.11 ± 14 J/K/mol
220 K | 228.95 ± 14 J/K/mol and 232.75 ± 14 J/K/mol and 241.97 ± 15 J/K/mol | 234.95 ± 14 J/K/mol
230 K | 238.24 ± 15 J/K/mol and 242.68 ± 15 J/K/mol and 252.1 ± 15 J/K/mol | 244.67 ± 15 J/K/mol
240 K | 247.43 ± 15 J/K/mol and 252.5 ± 15 J/K/mol and 262.12 ± 16 J/K/mol | 254.28 ± 15 J/K/mol
250 K | 256.52 ± 16 J/K/mol and 262.22 ± 16 J/K/mol and 272.04 ± 17 J/K/mol | 263.8 ± 16 J/K/mol
260 K | 265.53 ± 16 J/K/mol and 271.86 ± 17 J/K/mol and 281.89 ± 17 J/K/mol | 273.23 ± 17 J/K/mol
270 K | 274.45 ± 17 J/K/mol and 281.43 ± 17 J/K/mol and 291.67 ± 18 J/K/mol | 282.58 ± 17 J/K/mol
273.15 K | 277.25 ± 17 J/K/mol and 284.43 ± 17 J/K/mol and 294.74 ± 18 J/K/mol | 285.51 ± 17 J/K/mol
280 K | 283.31 ± 17 J/K/mol and 290.94 ± 18 J/K/mol and 301.39 ± 18 J/K/mol | 291.87 ± 18 J/K/mol
290 K | 292.12 ± 18 J/K/mol and 300.39 ± 18 J/K/mol and 311.06 ± 19 J/K/mol | 301.09 ± 18 J/K/mol
298.15 K | 299.26 ± 18 J/K/mol and 308.06 ± 19 J/K/mol and 318.92 ± 19 J/K/mol | 308.57 ± 19 J/K/mol
300 K | 300.87 ± 18 J/K/mol and 309.8 ± 19 J/K/mol and 320.7 ± 20 J/K/mol | 310.26 ± 19 J/K/mol
